Laboratory results taken from article PMC2951497 (Journal of medicinal chemistry, 2010).
“Also recorded” adds a separate entry of the source.

Legend:
[1] = target: 5-HT4 receptors (Homo sapiens, UniProt Q13639); assay: GloSensor L9 assay for cAMP response; assay type: cell-based; conditions: agonist/inverse agonist assay; Ag. = agonist; Inv. Ag. = Inverse agonist
[2] = target: human recombinant 5-HT4 receptors (h5-HT4) (Homo sapiens, UniProt Q13639); assay: NIMH-PDSP binding to human recombinant 5-HT4 receptors, [3H]GR 113808; conditions: for h5-HT4 Ki: h5-HT4 receptors expressed in HEK293T cells, averages of triplicate measurements
[3] = target: h5-HT1E (Homo sapiens, UniProt P28566); assay: NIMH-PDSP binding screen
[4] = target: BZP (rat brain site); assay: NIMH-PDSP binding screen; conditions: read-out: Binding affinities (Ki) BZP (rat brain site)
[5] = target: hGABAA; assay: NIMH-PDSP binding screen; set-up: species or system human; conditions: read-out: Binding affinities (Ki) hGABAA

human recombinant 5-HT4 receptors (h5-HT4), sequence (Q13639 whole entry): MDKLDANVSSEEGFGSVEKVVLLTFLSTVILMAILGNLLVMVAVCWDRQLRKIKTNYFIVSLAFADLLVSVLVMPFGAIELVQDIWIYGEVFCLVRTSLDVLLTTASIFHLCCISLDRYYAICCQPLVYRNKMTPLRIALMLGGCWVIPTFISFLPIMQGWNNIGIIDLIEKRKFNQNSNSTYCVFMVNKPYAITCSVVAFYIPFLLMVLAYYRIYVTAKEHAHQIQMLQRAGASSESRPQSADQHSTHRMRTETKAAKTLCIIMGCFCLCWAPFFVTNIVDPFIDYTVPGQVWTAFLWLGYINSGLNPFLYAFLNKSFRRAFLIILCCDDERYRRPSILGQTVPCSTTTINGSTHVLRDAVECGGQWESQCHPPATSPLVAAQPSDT
5-HT4 receptors, sequence (Q13639 whole entry): as above
h5-HT1E, sequence (P28566 whole entry): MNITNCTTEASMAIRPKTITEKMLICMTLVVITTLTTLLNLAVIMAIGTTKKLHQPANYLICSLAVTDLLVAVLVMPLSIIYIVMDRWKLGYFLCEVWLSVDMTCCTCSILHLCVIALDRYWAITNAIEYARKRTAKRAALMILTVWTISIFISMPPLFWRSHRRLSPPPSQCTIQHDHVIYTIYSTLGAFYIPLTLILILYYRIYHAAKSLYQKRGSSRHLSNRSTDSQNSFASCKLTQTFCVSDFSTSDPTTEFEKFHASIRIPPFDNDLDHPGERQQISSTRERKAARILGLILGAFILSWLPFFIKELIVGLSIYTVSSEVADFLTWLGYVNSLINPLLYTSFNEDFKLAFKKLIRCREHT

Row | Efficacy [1] | Ki [3] [µM] | Ki [4] [µM] | Ki [5] [µM] | selectivity against the full range of tested receptors and binding sites ([2]; 5-HT4 receptor selectivity) | Compound | h5-HT4 Ki [2]
1 | potent full agonist |  |  |  |  | CCCCN1CCC(COC(=O)c2ccc(N)cc2OC)CC1 [Compound 12, (1-Butylpiperidin-4-yl)methyl 4-amino-2-methoxybenzoate] | 
2 | inverse agonists |  |  |  |  | CCCCN1CCC(COC(=O)c2cc(I)c(N)c3c2OCCO3)CC1 [Compound 1, (1-Butylpiperidin-4-yl)methyl 8-amino-7-iodo-2,3-dihydrobenzo[b][1,4]dioxine-5-carboxylate, reference compound] | 
3 | inverse agonists | > 10 | > 10 | > 10 |  | CCCCN1CCC(COC(=O)c2cc(Cl)c(NC)c3c2OCCO3)CC1 [Compound 8, (1-Butylpiperidin-4-yl)methyl 7-chloro-8-(methylamino)-2,3-dihydrobenzo[b][1,4]dioxine-5-carboxylate] | low nanomolar; also recorded: binding affinity comparable to that of 1
4 | antagonists (inactive) |  |  |  |  | CCCCN1CCC(COC(=O)c2ccc(N)c3c2OCCO3)CC1 [Compound 4, reference compound] | 
5 | inactive |  |  |  |  | CCCCN1CCC(COC(=O)c2cc(C)c(N)c3c2OCCO3)CC1 [Compound 7, (1-Butylpiperidin-4-yl)methyl 8-amino-7-methyl-2,3-dihydrobenzo[b][1,4]dioxine-5-carboxylate] | 
6 |  |  |  |  |  | CCCCN1CCC(COC(=O)c2cc(Br)c(NC)c3c2OCCO3)CC1 [Compound 9, (1-Butylpiperidin-4-yl)methyl 7-bromo-8-(methylamino)-2,3-dihydrobenzo[b][1,4]dioxine-5-carboxylate] | low nanomolar affinity
7 | antagonists (inactive) |  | > 10 | > 10 | greater than 60 fold | CCCCN1CCC(COC(=O)c2ccc(N)c(OC)c2)CC1 [Compound 13, (1-Butylpiperidin-4-yl)methyl 4-amino-3-methoxybenzoate] | low nanomolar; also recorded: affinity comparable to that of 1
8 | inverse agonists |  |  |  |  | CCCCN1CCC(COC(=O)c2cc(F)c(N)c3c2OCCO3)CC1 [Compound 17, (1-Butylpiperidin-4-yl)methyl 8-amino-7-fluoro-2,3-dihydrobenzo[b][1,4]dioxine-5-carboxylate] | low nanomolar
